Reference: PubChem BioAssay AID330 (DTP/NCI, 2004)
“And” between values parts separate entries of the source, which are not always exact repeats. Identical values can stand only once. Inconclusive results and toxic doses are left out. How the source made its calls: active means survival T/C of 150% or more; inactive means T/C below 125% in these data.

Test system: P388 leukemia ip, CD2F1 mice, survival T/C
Experiment: NCI In Vivo Anticancer Drug Screen. Data for tumor model P388 Leukemia (intraperitoneal) in CD2F1 (CDF1) mice
Settings: endpoint: median survival time, higher = longer survival
Summary of the method: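 Mice carrying the transplanted tumor received test compound or vehicle. Survival was recorded in each group, and the value is the treated-group measurement divided by that of the vehicle-treated control group.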

[1] = dose: 60.0 mg/kg/injection, schedule: Q01DX005 (ip), vehicle: saline with Tween-80
[2] = dose: 120.0 mg/kg/injection, schedule: Q01DX005 (ip), vehicle: saline with Tween-80
[3] = dose: 240.0 mg/kg/injection, schedule: Q01DX005 (ip), vehicle: saline with Tween-80
[4] = dose: 50.0 mg/kg/injection, schedule: Q01DX009 (ip), vehicle: saline
[5] = dose: 100.0 mg/kg/injection, schedule: Q01DX009 (ip), vehicle: saline
[6] = dose: 50.0 mg/kg/injection, schedule: Q01DX009 (ip), vehicle: Klucel (hydroxypropylcellulose) (HPC)
[7] = dose: 100.0 mg/kg/injection, schedule: Q01DX009 (ip), vehicle: Klucel (hydroxypropylcellulose) (HPC)
[8] = dose: 200.0 mg/kg/injection, schedule: Q01DX009 (ip), vehicle: Klucel (hydroxypropylcellulose) (HPC)
[9] = dose: 50.0 mg/kg/injection, schedule: Q01DX009 (ip), vehicle: saline with Tween-80
[10] = dose: 100.0 mg/kg/injection, schedule: Q01DX009 (ip), vehicle: saline with Tween-80
[11] = dose: 25.0 mg/kg/injection, schedule: Q01DX005 (ip), vehicle: saline with Tween-80
[12] = dose: 50.0 mg/kg/injection, schedule: Q01DX005 (ip), vehicle: saline with Tween-80
[13] = dose: 12.5 mg/kg/injection, schedule: Q01DX005 (ip), vehicle: saline with Tween-80

Measured: T/C

CC(=O)/C(=C\c1ccc([N+](=O)[O-])o1)C(=O)CCN(C)C
inactive: dose: 7.5 mg/kg/injection, schedule: Q01DX005 (ip), vehicle: Klucel (hydroxypropylcellulose) (HPC) 97 % of control | dose: 15.0 mg/kg/injection, schedule: Q01DX005 (ip), vehicle: Klucel (hydroxypropylcellulose) (HPC) 107 % of control

Cc1ccnc(NS(=O)(=O)c2ccc(NCc3c4ccccc4nc4cc(Cl)ccc34)cc2)n1
inactive: [1] 99 % of control | [2] 90 % of control | [3] 86 % of control

COC(=O)C1(CC(=O)c2ccc(Cl)cc2)NC(=S)NC(=O)C1C#N (stereo not given)
inactive: [1] 99 % of control | [2] 98 % of control | [3] 106 % of control

CC1CC(C)NC(C)C1 (stereo not given)
inactive: dose: 12.5 mg/kg/injection, schedule: Q01DX009 (ip), vehicle: saline 86 % of control | dose: 25.0 mg/kg/injection, schedule: Q01DX009 (ip), vehicle: saline 103 % of control | [4] 97 % of control | [5] 93 % of control

O=C(Nc1ccc([N+](=O)[O-])cc1)C1C(=O)C(=O)N(c2ccc([N+](=O)[O-])cc2)C1=O (stereo not given)
inactive: [6] 107 % of control | [7] 100 % of control | [8] 104 % of control

NCc1ccc(Cc2ccc(CN)cc2)cc1
inactive: [9] 100 % of control | [10] 100 % of control

COc1cccc2c1C(=O)c1c(O)c3c(c(O)c1C2=O)C[C@@](O)(C(C)=O)C[C@@H]3OC1CC(N)C(C(C)O)O1 (stereo not given in full)
inactive: dose: 3.12 mg/kg/injection, schedule: Q04DX003 (ip), vehicle: distilled water + Tween-80 117 % of control and 101 % of control | dose: 6.25 mg/kg/injection, schedule: Q04DX003 (ip), vehicle: distilled water + Tween-80 112 % of control and 92 % of control | dose: 12.5 mg/kg/injection, schedule: Q04DX003 (ip), vehicle: distilled water + Tween-80 114 % of control and 104 % of control | dose: 25.0 mg/kg/injection, schedule: Q04DX003 (ip), vehicle: distilled water + Tween-80 117 % of control and 111 % of control | dose: 50.0 mg/kg/injection, schedule: Q04DX003 (ip), vehicle: distilled water + Tween-80 117 % of control | dose: 100.0 mg/kg/injection, schedule: Q04DX003 (ip), vehicle: distilled water + Tween-80 119 % of control

CCOC(=O)CNC(=O)OC(C)(C)C
inactive: [1] 103 % of control | [2] 100 % of control | [3] 108 % of control

O=[N+]([O-])c1ccc(N/N=C\c2c(Cl)[nH]c3ccccc23)cc1
inactive: dose: 100.0 mg/kg/injection, schedule: Q04DX002 (ip), vehicle: saline + alcohol 86 % of control | dose: 200.0 mg/kg/injection, schedule: Q04DX002 (ip), vehicle: saline + alcohol 98 % of control | dose: 400.0 mg/kg/injection, schedule: Q04DX002 (ip), vehicle: saline + alcohol 104 % of control

O=C1C=CC(=Nc2ccccc2)O1
inactive: dose: 2.5 mg/kg/injection, schedule: Q01DX009 (ip), vehicle: saline with Tween-80 100 % of control | dose: 5.0 mg/kg/injection, schedule: Q01DX009 (ip), vehicle: saline with Tween-80 100 % of control | dose: 10.0 mg/kg/injection, schedule: Q01DX009 (ip), vehicle: saline with Tween-80 95 % of control

COc1cccc(C=O)c1OCCSC
inactive: [11] 99 % of control | [12] 103 % of control | dose: 100.0 mg/kg/injection, schedule: Q01DX005 (ip), vehicle: saline with Tween-80 108 % of control

O=C1C2(CC3C=CC2C3)C(=O)C12CC1C=CC2C1 (stereo not given)
inactive: [9] 102 % of control | [10] 100 % of control | dose: 200.0 mg/kg/injection, schedule: Q01DX009 (ip), vehicle: saline with Tween-80 103 % of control

OC1CSc2ccccc2-n2cccc21 (stereo not given)
inactive: dose: 60.0 mg/kg/injection, schedule: Q01DX005 (ip), vehicle: Klucel (hydroxypropylcellulose) (HPC) 99 % of control | dose: 120.0 mg/kg/injection, schedule: Q01DX005 (ip), vehicle: Klucel (hydroxypropylcellulose) (HPC) 106 % of control | dose: 240.0 mg/kg/injection, schedule: Q01DX005 (ip), vehicle: Klucel (hydroxypropylcellulose) (HPC) 105 % of control

Clc1ccc(SSc2ccc(Cl)cc2)cc1
inactive: dose: 12.5 mg/kg/injection, schedule: Q01DX009 (ip), vehicle: gum acacia 106 % of control | dose: 25.0 mg/kg/injection, schedule: Q01DX009 (ip), vehicle: gum acacia 106 % of control | dose: 50.0 mg/kg/injection, schedule: Q01DX009 (ip), vehicle: gum acacia 114 % of control

CN(C1=NC1(C)C)c1ccccc1
inactive: [4] 96 % of control | [5] 94 % of control | dose: 200.0 mg/kg/injection, schedule: Q01DX009 (ip), vehicle: saline 91 % of control

CC(C=O)[Se]c1ccccc1 (stereo not given)
inactive: [1] 100 % of control

Cc1cc(Br)c(N)c(C(O)(C(F)(F)F)C(F)(F)F)c1
inactive: [6] 91 % of control | [7] 97 % of control | [8] 108 % of control

C=C(/C=C/C1OC2OC(C)(C)OC2C1OC)OP(=O)(OCC)OCC (stereo not given)
inactive: dose: 100.0 mg/kg/injection, schedule: Q04DX002 (ip), vehicle: saline with Tween-80 103 % of control | dose: 200.0 mg/kg/injection, schedule: Q04DX002 (ip), vehicle: saline with Tween-80 100 % of control | dose: 400.0 mg/kg/injection, schedule: Q04DX002 (ip), vehicle: saline with Tween-80 91 % of control

Cc1oc(N)c(C(N)=O)c1C
inactive: dose: 100.0 mg/kg/injection, schedule: Q01DX009 (ip), vehicle: saline sonified 115 % of control | dose: 200.0 mg/kg/injection, schedule: Q01DX009 (ip), vehicle: saline sonified 110 % of control | dose: 400.0 mg/kg/injection, schedule: Q01DX009 (ip), vehicle: saline sonified 115 % of control

CCCCOC(=O)c1ccc(NC(=O)Nc2ccccc2OC)cc1
inactive: dose: 25.0 mg/kg/injection, schedule: Q04DX003 (ip), vehicle: saline with Tween-80 91 % of control | dose: 50.0 mg/kg/injection, schedule: Q04DX003 (ip), vehicle: saline with Tween-80 87 % of control

Cc1cc(C)nc(CC(O)c2ccc(C=O)cc2)c1 (stereo not given)
inactive: [1] 100 % of control | [2] 94 % of control | [3] 94 % of control

N#CC(C#N)=C(O)/C(=C/c1ccc([N+](=O)[O-])cc1)NC(=O)c1ccccc1
inactive: dose: 60.0 mg/kg/injection, schedule: Q01DX005 (ip), vehicle: saline 95 % of control | dose: 120.0 mg/kg/injection, schedule: Q01DX005 (ip), vehicle: saline 100 % of control | dose: 240.0 mg/kg/injection, schedule: Q01DX005 (ip), vehicle: saline 95 % of control

COc1cc(CCNC(C)=O)cc(OC)c1OC
inactive: dose: 25.0 mg/kg/injection, schedule: Q01DX005 (ip), vehicle: water 100 % of control | dose: 50.0 mg/kg/injection, schedule: Q01DX005 (ip), vehicle: water 104 % of control | dose: 100.0 mg/kg/injection, schedule: Q01DX005 (ip), vehicle: water 100 % of control | dose: 200.0 mg/kg/injection, schedule: Q01DX005 (ip), vehicle: water 91 % of control

Cn1c(=O)nc2n(-c3ccc(Cl)c(Cl)c3)c3ccccc3nc-2c1=O
inactive: dose: 100.0 mg/kg/injection, schedule: Q01DX001 (ip), vehicle: Klucel (hydroxypropylcellulose) (HPC) 107 % of control | dose: 200.0 mg/kg/injection, schedule: Q01DX001 (ip), vehicle: Klucel (hydroxypropylcellulose) (HPC) 98 % of control | dose: 400.0 mg/kg/injection, schedule: Q01DX001 (ip), vehicle: Klucel (hydroxypropylcellulose) (HPC) 94 % of control

NC1CC2c3ccccc3C1c1ccccc12 (stereo not given)
inactive: [13] 100 % of control | [11] 100 % of control | [12] 100 % of control

CCOC(=O)N/N=C/c1ccc[nH]1
inactive: dose: 1.8 mg/kg/injection, schedule: Q01DX005 (ip), vehicle: saline with Tween-80 100 % of control | dose: 3.75 mg/kg/injection, schedule: Q01DX005 (ip), vehicle: saline with Tween-80 100 % of control | dose: 7.5 mg/kg/injection, schedule: Q01DX005 (ip), vehicle: saline with Tween-80 101 % of control and 103 % of control

Cc1ccc(NCCN2CCC(C3CCN(CCNc4ccc(C)c5sc6ccccc6c(=O)c45)CC3)CC2)c2c(=O)c3ccccc3sc12
inactive: dose: 6.25 mg/kg/injection, schedule: Q01DX005 (ip), vehicle: saline with Tween-80 90 % of control | [13] 97 % of control | [11] 95 % of control | [12] 94 % of control

O=C(O)CCNC(=O)CCCO
inactive: dose: 50.0 mg/kg/injection, schedule: Q01DX005 (ip), vehicle: saline 100 % of control | dose: 100.0 mg/kg/injection, schedule: Q01DX005 (ip), vehicle: saline 104 % of control | dose: 200.0 mg/kg/injection, schedule: Q01DX005 (ip), vehicle: saline 104 % of control
